Laboratory results: patent publication US9067898B1, “Isothiazole derivatives as GPR120 agonists for the treatment of type II diabetes” (Janssen Pharmaceutica NV, priority 2014, dated 2015)

These compounds were tested against T1, long form of human GPR120 (Homo sapiens, UniProt Q5NUL3) (assay: Human GPR120 DiscoveRx PathHunter Beta-Arrestin assay, Procedure β-arrestin A). Settings: PathHunter CHO-K1 GPR120 β-Arrestin cell line, 3000 cells per well, read-out: hGPR120 β-arrestin A EC50.
T1 construct: host or cells: PathHunter CHO-K1 GPR120 β-Arrestin Cell Line
Assay type: cell-based
Text: The binding of an agonist (medium/long chain fatty acids or small molecule agonists) to the G-protein-coupled receptor GPR120 activates phospholipase C, leading to release of intracellular Ca^+2 through the generation of inositol 1,4,5-trisphosphate (InsP3 or IP3). GPR120 activation can also trigger intracellular signaling via recruitment of Beta-Arrestin. In the present method, agonist-induced activation of the human GPR120 receptor is monitored through the use of PathHunter CHO-K1 GPR120 Beta-Arrestin Cell Line engineered by DiscoveRx, as detailed below. The cell lines are designed to co-express both the ProLink/Enzyme Donor (PK)-tagged GPCR and the Enzyme […] (EA)-tagged Beta-Arrestin fusion proteins. Upon GPR120 receptor stimulation/activation, the EA-tagged Beta-Arrestin portion is translocated to the tagged receptor, where the two enzyme fragments are brought within close proximity. Under these conditions, these fragments can interact and form an active Beta-gal enzyme complex through Enzyme Fragment Complementation (EFC). This active Beta-gal complex can enzymatically hydrolyse the substrate to produce a detectable light signal; therefore, activation as a function of agonist concentration can be expressed as an EC50 value to determine relative compound activities. This in vitro assay therefore serves to assess compound agonist activity of the GPR120. Procedure β-Arrestin A: In Procedure β-arrestin A, the cell used were PathHunter CHO-K1 GPR120 β-Arrestin Cell Line, expressing the long form of human GPR120 (Genbank accession number NM 181745), with 3000 cells per well. Procedure β-Arrestin B: In Procedure 3-arrestin B the cells used were PathHunter CHO-K1 GPR120S β-Arrestin Cell Line, expressing the short form of the GPR120 receptor (Accession #NM_181745), with 5000 cells/well. Assay Procedure:
The selected CHO-K1 GPR120 β-Arrestin cells were cultured in Ham's F12 media supplemented with 10% fetal bovine serum (FBS), 1% Glutamine, lx p/s, 800 μg/mL G418 and 300 μg/mL Hygromycin B (for selection). Cell stocks were maintained and grown in a sub-confluent state using standard cell culture procedures. The day before the experiment, the cells were harvested with non-enzymatic cell dissociation buffer and re-suspended in complete growth media at the desired concentration. A Corning 384-plate was then seeded with the proper number of cells in a volume of 25 μL, per well. The seeded plates were incubated overnight at 37° C.
On the day of the experiment, the Assay Buffer containing (a) HBSS with Ca^++ and Mg^++, (b) 20 mM HEPES, and (c) 0.1% BSA stabilizer (pH 7.4) was prepared. The growth medium was gently removed from the cell plates and 20 μL of Assay Buffer added to each well. The plate was then incubated at 37° C. for 60 min. Test compounds were serially diluted in Assay Buffer to desired concentrations (more particularly to one or more of the following μM concentrations: 25, 12.5, 6.25, 3.125, 1.5625, 0.78125, 0.390625, 0.1953125, 0.09765625, 0.048828125, 0.024414063, 0.012207031). Five μL of compound dilution was then added to each well and the plate incubated at 37° C. for 90 min. The detection reagents were prepared according to the manufacture's instruction. Twelve μL of the detection reagents were added to each well and the plate incubated at room temperature for 60 min.
The plates were read on an EnVision instrument, using Protocol name: Luminescence, Plate type: 384 Costar, Measurement height: 3 mm, Measurement time: 1 s, Aperture: 384 Plate aperture. The % activity relative to the positive control was calculated using the following equation:
The % Activity values were plotted versus the concentration of test compound and fitted to a sigmoidal dose-response curve with a Hill slope=1 (fixed value) using nonlinear regression with GraphPad Prism 5.0 to calculate the EC50 values. […]

T1 sequence (Q5NUL3 1-377 isoform Q5NUL3-1): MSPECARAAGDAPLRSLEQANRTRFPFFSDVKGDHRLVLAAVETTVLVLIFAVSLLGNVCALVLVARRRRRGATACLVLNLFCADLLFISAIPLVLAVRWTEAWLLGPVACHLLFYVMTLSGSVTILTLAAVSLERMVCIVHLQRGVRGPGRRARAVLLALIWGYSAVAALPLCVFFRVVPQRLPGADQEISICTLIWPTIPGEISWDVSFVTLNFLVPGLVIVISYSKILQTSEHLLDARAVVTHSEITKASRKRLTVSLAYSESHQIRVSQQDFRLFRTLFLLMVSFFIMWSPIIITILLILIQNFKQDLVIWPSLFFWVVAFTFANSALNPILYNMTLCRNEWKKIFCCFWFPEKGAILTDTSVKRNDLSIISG
T1 sequence (P32121 whole entry partner): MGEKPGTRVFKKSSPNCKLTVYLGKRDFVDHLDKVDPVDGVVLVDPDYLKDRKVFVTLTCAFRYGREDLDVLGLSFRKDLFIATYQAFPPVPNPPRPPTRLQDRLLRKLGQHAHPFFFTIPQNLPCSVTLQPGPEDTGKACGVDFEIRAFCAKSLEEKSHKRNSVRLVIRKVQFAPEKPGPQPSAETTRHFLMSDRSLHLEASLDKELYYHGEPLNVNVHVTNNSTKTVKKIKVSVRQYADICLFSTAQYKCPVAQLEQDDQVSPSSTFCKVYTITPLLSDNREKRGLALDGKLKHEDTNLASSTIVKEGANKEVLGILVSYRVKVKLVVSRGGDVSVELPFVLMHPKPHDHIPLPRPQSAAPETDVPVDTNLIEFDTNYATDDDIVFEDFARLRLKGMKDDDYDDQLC

EC50	Structure (SMILES)
203 nM	CCc1ccc(-c2nsc(C(F)(F)F)c2COc2c(C)cc(CCC(=O)O)cc2C)cc1 [Cpd 239, 3-(4-((3-(4-ethylphenyl)-5-(trifluoromethyl)isothiazol-4-yl)methoxy)-3,5-dimethylphenyl)propanoic acid]
191 nM	Cc1ccc(-c2snc(Cl)c2COc2c(F)cc(CCC(=O)O)cc2F)c(F)c1 [Cpd 77, 3-(4-[[3-chloro-5-(2-fluoro-4-methylphenyl)-1,2-thiazol-4-yl]methoxy]-3,5-difluorophenyl)propanoic acid]
302 nM	Cc1cc(CCC(=O)O)ccc1OCc1c(-c2ccc(Cl)cc2)nsc1C(F)(F)F [Cpd 235, 3-(4-[[3-(4-chlorophenyl)-5-(trifluoromethyl)-1,2-thiazol-4-yl]methoxy]-3-methylphenyl)propanoic acid]

The compounds below were run against T2, Human GPR120 short form (Homo sapiens, UniProt Q5NUL3) (assay: Human GPR120 calcium flux assay (FLIPR), Procedure Calcium A). Settings: HEK-293 cells expressing human GPR120 short form, 2500 cells/well; read-out: GPR120 Ca2+ Assay A EC50.
T2 construct: expressed in transfected cells
T2 sequence (Q5NUL3 1-361): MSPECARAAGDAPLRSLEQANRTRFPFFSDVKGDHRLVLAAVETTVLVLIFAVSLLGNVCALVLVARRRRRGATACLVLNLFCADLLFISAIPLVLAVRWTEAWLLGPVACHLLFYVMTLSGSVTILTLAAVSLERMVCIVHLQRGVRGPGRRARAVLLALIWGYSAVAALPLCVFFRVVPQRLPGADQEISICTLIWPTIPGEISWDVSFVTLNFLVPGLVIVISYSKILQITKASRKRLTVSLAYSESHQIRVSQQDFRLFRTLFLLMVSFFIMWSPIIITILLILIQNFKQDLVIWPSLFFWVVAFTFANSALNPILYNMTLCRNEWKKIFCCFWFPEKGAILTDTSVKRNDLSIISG
Assay type: cell-based
Text: This in vitro assay serves to assess test compound agonist activity against the short splice variant (SVS with Accession number NM_001195755.1 confirmed by sequencing data) of the GPR120 receptor. The Human Short splice variant #2 (NM_001195755.1) is missing an in-frame coding exon compared to variant 1 (the Human Long splice variant NM_181745.3), resulting in a shorter isoform (GPR120-S) lacking a 16 aa protein segment compared to isoform GPR120-L. The assay platform utilizes HEK-293 cells stably transfected to express the Human GPR120 short form. These cells are first loaded with the Ca^+2 sensitive dye, Fluo-4 NW. Upon stimulation, intracellular released Ca^+2 can bind to the dye and alter its fluorescence intensity. This increase in fluorescence signal, and thus the flux in intracellular [Ca^2+], is detected and quantitated by fluorescence imaging using a FLIPR reader. The effect of the agonist is measured as a function of concentration and used to calculate an EC50 based upon a response curve.
In this procedure 2500 cells/well were employed.
A Human GPR120 clone (Genbank accession number NM_001195755.1) was placed into the pcDNA3.1 mammalian expression vector carrying the neomycin resistance gene. A stable mammalian cell was generated by placing the above clone into a HEK293 background. Clonal cells responding to long chain fatty acids had expression levels of GPR120 confirmed by RT-qPCR. Human HEK-GPR120 cells were cultured in Dulbecco's Modified Eagle's Medium (DMEM)/F12 medium supplemented with 10% fetal bovine serum (FBS), 1% L-Glutamine and 1% penicillin/streptomycin and 0.5 mg/ml G-418. Cells were split 2 times a week to keep the cells in the log-phase growth.
In preparation for the assay, HEK cells stably transfected with Human GPR120 (2.5K cells per well in 25 uL growth medium) were seeded into 384-well plates and then incubated overnight (37° C., 5% CO2). The next day, the media was changed to 20 μL assay buffer and the cell starved for 1 h at 37° C. The dye loading solution (2× dye) was prepared using 10 mL assay buffer, 100 μL of 250 mM probenecid, 1 bottle of Component A, and 20 μl of dye in DMSO. Twenty μL of the 2× dye loading buffer was then added to each well. The plates were incubated at 37° C. for 30 min, then at room temperature for an additional 15 minutes, before performing the assay on FLIPR. Test compounds were prepared in assay buffer (2 uL of cpd+198 uL assay buffer, final DMSO in assay plate is 0.2%) at the desired concentration, more particularly at 100, 50, 25, 12.5, 6.25, 3.125, 1.562, 0.781, 0.391, 0.195, 0.098, 0.049, 0.024 and 0.012 μM.
The assay was performed on a FLIPR plate reader using the following parameters. Baseline was read for 10 seconds at 1 sec intervals. The program was set to transfer 10 μL of ligand from compound plate to cell plate after baseline reading. Aspiration was executed at: 10 μL/sec speed, 4.6 μL height; Dispensing was executed at: 30 μL/sec speed, 45 μL height. After compound addition, each well was read for 300 sec, with measurements collected at 1 sec intervals.
The kinetic data from the FLIPR was based upon a 5 minute window for data collection. The fluorescence of each sample well was used for individual calculations of a normalized RFU value, which was defined as maximum response minus the minimum response. The normalized fluorescence reading (RFU) was calculated as follows: RFU=Fmax−Fmin The data were fitted to a sigmoidal dose-response curve with a variable Hill slope (<2) using nonlinear regression with GraphPad Prism 5.0 to calculate the EC50 values. The Fitting Equation was: Y=Bottom+(Top−Bottom)/(1+10^((Log EC50−X)*HillSlope)), where X is the log of the concentration and Y is the response.

EC50	Structure (SMILES)
1100 nM	CCc1ccc(-c2nsc(-c3ccccc3)c2COc2ccc(CCC(=O)O)c(C)c2C)cc1 [Cpd 233, 3-(4-[[3-(4-ethylphenyl)-5-phenyl-1,2-thiazol-4-yl]methoxy]-2,3-dimethylphenyl)propanoic acid]
203 nM	CCc1ccc(-c2nsc(C(F)(F)F)c2COc2c(F)cc(C3CC3C(=O)O)cc2F)cc1 (stereo not drawn) [Cpd 163, 2-(4-[[3-(4-ethylphenyl)-5-(trifluoromethyl)-1,2-thiazol-4-yl]methoxy]-3,5-difluorophenyl)cyclopropane-1-carboxylic acid]
70 nM	CCc1ccc(-c2nsc(C(F)(F)F)c2COc2ccc(CCC(=O)O)c3sccc23)cc1 [Cpd 92, 3-(4-[[3-(4-ethylphenyl)-5-(trifluoromethyl)-1,2-thiazol-4-yl]methoxy]-1-benzothiophen-7-yl)propanoic acid]
849 nM	O=C(O)CCc1ccc(OCc2csnc2-c2ccc(Cl)s2)c(F)c1F [Cpd 226, 3-(4-((3-(5-chlorothiophen-2-yl)isothiazol-4-yl)methoxy)-2,3-difluorophenyl)propanoic acid]
191 nM	CCc1ccc(-c2sncc2COc2ccc(CCC(=O)O)c(C)c2C)cc1 [Cpd 158, 3-(4-[[5-(4-ethylphenyl)-1,2-thiazol-4-yl]methoxy]-2,3-dimethylphenyl)propanoic acid]
165 nM	Cc1c(CCC(=O)O)ccc(OCc2c(-c3ccc(C(C)F)cc3)nsc2C(F)(F)F)c1C (stereo not drawn) [Cpd 146, 3-[4-([3-[4-(1-fluoroethyl)phenyl]-5-(trifluoromethyl)-1,2-thiazol-4-yl]methoxy)-2,3-dimethylphenyl]propanoic acid]
> 5000 nM	Cc1c(/C=C/C(=O)O)ccc(OCc2c(-c3ccc(Cl)cc3)nsc2C(F)(F)F)c1C [Cpd 244, (E)-3-(4-((3-(4-chlorophenyl)-5-(trifluoromethyl)isothiazol-4-yl)methoxy)-2,3-dimethylphenyl)acrylic acid]
266 nM	Cc1c(CCCO)ccc(OCc2sc(Cl)cc2-c2ccc(Cl)cc2)c1C [Cpd 15, 3-(4-[[5-chloro-3-(4-chlorophenyl)thiophen-2-yl]methoxy]-2,3-dimethylphenyl)propan-1-ol]
677 nM	CCc1ccc(-c2nsc(CC)c2COc2ccc(CCC(=O)O)c(C)c2C)cc1 [Cpd 217, 3-(4-[[5-ethyl-3-(4-ethylphenyl)-1,2-thiazol-4-yl]methoxy]-2,3-dimethylphenyl)propanoic acid]
450 nM	O=C(O)CCc1cc(Br)c(OCc2c(-c3ccc(Cl)cc3)nsc2C(F)(F)F)c(Br)c1 [Cpd 241, 3-(3,5-dibromo-4-[[3-(4-chlorophenyl)-5-(trifluoromethyl)-1,2-thiazol-4-yl]methoxy]phenyl) propanoic acid]
263 nM	Cc1c(CCC(=O)O)ccc(OCc2c(-c3ccc(C(C)(F)F)cc3)nsc2C(F)(F)F)c1C [Cpd 178, 3-[4-([3-[4-(1,1-difluoroethyl)phenyl]-5-(trifluoromethyl)-1,2-thiazol-4-yl]methoxy)-2,3-dimethylphenyl]propanoic acid]
1290 nM	CCc1ccc(-c2nsc(C(F)(F)F)c2COc2ccc(CCC(=O)O)c(C(F)(F)F)c2C)cc1 [Cpd 242, 3-(4-[[3-(4-ethylphenyl)-5-(trifluoromethyl)-1,2-thiazol-4-yl]methoxy]-3-methyl-2-(trifluoro-methyl)phenyl)propanoic acid]
